The target in this experiment is T1, SARS-CoV-2 3CL Protease (3C-like protease, Mpro, 3CLpro) (Severe acute respiratory syndrome coronavirus 2, UniProt P0DTD1).
T1 construct: gene rep; full-length mature nsp5 a.a; supplier apparently BPS Bioscience
Briefly: biochemical.

SMILES strings stand for the structures.

By IC50 is commonly meant the midpoint of a concentration-inhibition curve. Read a high IC50 as weaker potency in that assay.

`N[C@@H](CC(=O)N1CCn2c(nnc2C(F)(F)F)C1)Cc1cc(F)c(F)cc1F` [sitagliptin] showed an IC50 of 6.914 ± 0.034 µM.
